# Assay results as given in publication PMC9959501, “Critical Analysis and Optimization of Stoichiometric Ratio of Drug-Coformer on Cocrystal Design: Molecular Docking, In Vitro and In Vivo Assessment” (Pharmaceuticals, 2023).
# Experiments:
# [1] = Equilibrium solubility analysis; assay type: physicochemical; details: distilled water, 25 °C, stirred 24 h; mean ± SD, n = 3
# Method: Improvement in solubility may due to the formation of hydrogen bonds between the imidazole rings of telmisartan and polar carboxylate hydrogens of maleic acid in presence of solvents.
# The solubility analysis of telmisartan and prepared telmisartan-maleic acid cocrystals were assessed by placing an excessive amount of sample in 50 mL of distilled water at 25 °C. Then it was stirred for 24 h using a magnetic stirrer to ensure that the solution must reach equilibrium, and then sonicated (Imeco Sonifier, Imeco Ultrasonics, Pune, India) for 15 min. Then the solution was filtered and subjected to spectrophotometric analysis at 296 nm, using a UV-visible spectrophotometer (UV-1800 Shimadzu, Kyoto, Japan).
# [2] = Crystallite size from PXRD data (Scherrer's formula); assay type: physicochemical
# Method: An XRD study was performed to assess the physico-chemical state of telmisartan in prepared telmisartan-maleic acid cocrystals. The XRD study was performed by X-Ray Diffractometer (X’Pert Pro, Panalytical, Almelo, The Netherlands) using monochromatized Cu Kα radiation (λ = 1.54 Å) at a voltage of 45 kV and a current of 40 mA. Measurements were carried out in the angular scan range from 5° to 50° (2θ) at a scan speed of 1°/min. This study also helps to determine the size of the formed crystallite using Scherrer’s formula. Crystallite size Dp=K λ/Bcosθ, where Dp is average crystallite size (nm), K is Scherrer constant, λ is X-ray wavelength, B is FWHM (Full Width at Half Maximum) of XRD peak, and θ is XRD peak position.
# [3] = Pharmacokinetic study in rats; assay type: in vivo; details: male, Wistar, po, 1 mg/kg telmisartan equivalent in 0.5% w/v sodium carboxymethylcellulose, mean ± SD, n = 6
# Method: In vivo study protocol was approved by the Institutional Animal Ethical Committee, Dr. B. C. Roy College of Pharmacy & AHS., Durgapur, West Bengal, India (Approval No: BCRCP/IAEC/8/2019). The pharmacokinetic study was performed using male Wistar rats (180–200 g). The animals were allowed to be acclimatized for a period of 1 week in our laboratory environment prior to the experiment and had free access to water and food.
# The animals were divided into two groups. Group 1 (6 animals) received pure telmisartan (1 mg/kg) with 0.5% w/v sodium carboxymethylcellulose, and Group 2 (6 animals) received optimized cocrystals (equivalent to 1 mg/kg pure telmisartan) with 0.5% w/v sodium carboxymethylcellulose. Blood samples were collected at predetermined time intervals from the retro-orbital venous plexus of the rats and centrifuged for 5 min at 10,000 rpm. The plasma was separated and drug analysis was carried out by RP-HPLC method using the software ‘Class-Vp series version 5.03 (Shimadzu)’. The in vivo pharmacokinetic parameters such as peak plasma concentration (Cmax), total area under the plasma concentration-time curve (AUC0–∞), elimination rate constant (KE), and relative bioavailability (%) were calculated by using Kinetica software (version 4.4.1; Thermo Fisher Scientific, Waltham, MA, USA).
# [4] = In vitro dissolution study (USP apparatus II); assay type: physicochemical; details: phosphate buffer pH 7.5, 100 rpm, 37 ± 0.5 °C
# Method: The dissolution study was performed in a phosphate buffer (pH 7.5) using a USP dissolution rate test apparatus II (LAB INDIA, DS 8000, Thane, India) at 100 rpm and 37 ± 0.5 °C (Figure 7). […] The enhancement in dissolution may be due to the formation of hydrogen bonds between telmisartan and maleic acid in presence of solvents. The computational simulation approach already predicted this finding. Another reason for the enhancement of dissolution may be a reduction in crystal size, solubilization effect of the carrier as well as improved wettability of the drug in presence of solvents.
# A USP dissolution rate test apparatus II (LAB INDIA, DS 8000, India) was used to perform the dissolution studies of pure telmisartan and prepared multicomponent solid form (telmisartan cocrystals) in phosphate buffer medium (pH 7.5) at 37 ± 0.5 °C. An accurately weighed amount of sample was placed in a 900 mL dissolution medium and stirred at 100 rpm. At each specific time interval, a 5 mL sample was withdrawn and replaced by an equal volume of fresh pre-warmed phosphate buffer (pH 7.5) to maintain the sink condition throughout the experiment. The samples were filtered through Whatman filter paper (0.45 µm) and analyzed at 296 nm using a UV-visible spectrophotometer (UV-1800 Shimadzu, Japan). The dissolution studies were conducted in triplicate.
compound,measurement,setting,value
"CCCc1nc2c(C)cc(-c3nc4ccccc4n3C)cc2n1Cc1ccc(-c2ccccc2C(=O)O)cc1 [PD, Telmisartan]",solubility at 24 h,[1],5.15 ± 1.16 µg/mL
same,Average crystallite size,[2],893.51 ± 42.82 nm
same,k el,"[3]; plasma, rat, read-out: KE (elimination rate constant) (converted)",3e-05 s⁻¹
same,AUC(0-inf),[3]; rat plasma,4180 ± 87.8 ng·h/mL
same,Cmax,[3]; rat plasma,945 ± 27.9 ng/mL
same,Percentage drug dissolved within 120 min,[4],29.04 ± 2.06%
